Values quoted from earlier work as cited in patent US20250302817A1, “METHODS FOR TREATING PTEN-MUTANT TUMORS” (Icahn School of Medicine at Mount Sinai, priority 2016, published 2025).
Where two headings read alike, the source gives them in different places.

Columns and labels:
[1] = multiple sclerosis patients, cited from earlier work; for Alopecia / Arthralgia / Diarrhea / Headache / Nausea / Neutropenia / Parathesia: all grades
[2] = system: BCRP transporter and organic anion transporting polypeptide 1B1 and 1B3 (OATP1B1/1B3); details: repeated doses of teriflunomide; cited from earlier work

In the case of `C/C(O)=C(\C#N)C(=O)Nc1ccc(C(F)(F)F)cc1` [teriflunomide, (Z)-2-Cyano-3-hydroxy-but-2-enoic acid-(4trifluoromethylphenyl)-amide], the Alopecia ([1]; 7 mg/day (n = 1045)) is listed as 10%, the Arthralgia ([1]; 7 mg/day (n = 1045)) is listed as 8% and the Diarrhea ([1]; 7 mg/day (n = 1045)) is listed as 13%. For the same molecule, the Headache ([1]; 7 mg/day (n = 1045)) was 18%, the Nausea ([1]; 7 mg/day (n = 1045)) was 8% and the Neutropenia ([1]; 7 mg/day (n = 1045)) was 4%. The Parathesia ([1]; 7 mg/day (n = 1045)) was 8%, the “Elevated ALT, >3 × upper limit of normal” value ([1]; 7 mg/day (n = 1045)) was 6% and the “Elevated ALT, serious adverse events leading to treatment withdrawal” value ([1]; 7 mg/day (n = 1045)) was 3%. The “Hypertension (new onset)” value ([1]; 7 mg/day (n = 1045)) was 3%, the “Peripheral Neuropathy, serious adverse events leading to treatment withdrawal” value ([1]; 7 mg/day (n = 1045)) was 0.3% and the “Serious Infection” value ([1]; 7 mg/day (n = 1045)) was 2%. The Alopecia ([1]; 14 mg/day (n = 1002)) was 13%, the Arthralgia ([1]; 14 mg/day (n = 1002)) was 6% and the Diarrhea ([1]; 14 mg/day (n = 1002)) was 14%. The Headache ([1]; 14 mg/day (n = 1002)) was 16%, the Nausea ([1]; 14 mg/day (n = 1002)) was 11% and the Neutropenia ([1]; 14 mg/day (n = 1002)) was 6%. The Parathesia ([1]; 14 mg/day (n = 1002)) was 9%, the “Elevated ALT, >3 × upper limit of normal” value ([1]; 14 mg/day (n = 1002)) was 6% and the “Elevated ALT, serious adverse events leading to treatment withdrawal” value ([1]; 14 mg/day (n = 1002)) was 3%. The “Hypertension (new onset)” value ([1]; 14 mg/day (n = 1002)) was 4%, the “Peripheral Neuropathy, serious adverse events leading to treatment withdrawal” value ([1]; 14 mg/day (n = 1002)) was 0.5% and the “Serious Infection” value ([1]; 14 mg/day (n = 1002)) was 3%. The “increase in mean rosuvastatin AUC” value [2] was 2.51 fold and the “increase in mean rosuvastatin Cmax” value [2] was 2.65 fold.
